In PubChem BioAssay AID732 (Emory University Molecular Libraries Screening Center, 2007):
“And” between values parts separate entries of the source, which are not always exact repeats. Equal entries are not always repeated. The source made the active and inactive calls. How the calls were made is not given here.

System: in vivo angiogenesis, blood vessel count
Assay: reduction of blood vessel formation in vivo – HTS, in vivo study (AID 732);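 further: zebrafish embryos dosed at one day post fertilization; 0% = reference inhibitor and 100% = plate mean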
Details: stronger effect = lower value;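 tested at 30 µM in the well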

| SMILES | vessel count % control |
| --- | --- |
| CCn1cc(C(=O)O)c(=O)c2ccc(C)nc21 | 135% (inactive) |
| Nc1ncnc2c1nc(Br)n2C1OC2COP(=O)(O)O[C@@H]2C1O (some centres undefined) | 101% (inactive) |
| Nc1ccn([C@@H]2O[C@H](CO)[C@@H](O)[C@@H]2O)c(=O)n1 | 104% (inactive) |
| CCCCCCCCC(=O)NCc1ccc(O)c(OC)c1 | 98.1% (inactive) |
| CCCN(CCc1ccccc1)C1CCc2c(O)cccc2C1 (centres undefined) | 88.9% (inactive) |
| CN=C(NC#N)Nc1ccc(C2=NNC(=O)CC2C)cc1 (centres undefined) | 106% (inactive) |
| CNC(=O)c1cc2c(cn1)[nH]c1ccccc12 | 101% (inactive) |
| CCCCCCCCCCCCCCCC(=O)OC(CC(=O)O)C[N+](C)(C)C (centres undefined) | 92% (inactive) |
| Oc1[nH]c2ccccc2c1C1=Nc2ccc(Br)cc2/C1=N\OCCN1CCNCC1 | 86.4% (inactive) and 40.6% (inactive) |
| CC(=O)/C(C)=N/O | 104% (inactive) |
| CC(C)(C)c1o[nH]c(=O)c1CC(N)C(=O)O (centres undefined) | 106% (inactive) |
| COC(=O)C(C)(N)Cc1ccc(O)cc1 (centres undefined) | 123% (inactive) |
| CN1C2CCC1CC(OC(=O)C(CO)c1ccccc1)C2 (centres undefined) | 120% (inactive) and 116% (inactive) |
| CC(=O)N1CCN(c2ccc(OC[C@H]3CO[C@](Cn4ccnc4)(c4ccc(Cl)cc4Cl)O3)cc2)CC1 | 113% (inactive) |
| O=C1c2c(O)ccc(O)c2C(=O)c2c(NCCNCCO)ccc(NCCNCCO)c21 | 136% (inactive) |
| NC(=O)c1ncn([C@@H]2O[C@H](CO)[C@@H](O)[C@H]2O)n1 | 63.2% (inactive) |
| CN(C)CCC(c1ccc(Br)cc1)c1ccccn1 (centres undefined) | 92.3% (inactive) |
| CC1(C)CCC(NC(=O)[C@@H](N)CCC(=O)O)CC1 | 122% (inactive) |
| CC1OC1P(=O)(O)O (centres undefined) | 102% (inactive) |
| CC12CC3CC(C)(C1)CC(N)(C3)C2 | 128% (inactive) |
| O=C(O)[C@H]1NCCC[C@H]1C(=O)O | 121% (inactive) |
| N[C@@H]1CONC1=O | 90.5% (inactive) |
| CCCc1c(OCCCOc2ccc(OCC(=O)O)cc2)ccc(C(C)=O)c1O | 92.9% (inactive) |
| NC(CO)C(=O)NNCc1ccc(O)c(O)c1O (centres undefined) | 120% (inactive) |
| O=c1[nH]ccc2c(O)cccc12 | 0% (inactive) |
| CCn1ccnc1CC1COc2ccccc2O1 (centres undefined) | 100% (inactive) |
| Oc1[nH]c2c(Cl)cc(Cl)cc2c1C1=Nc2ccc(Br)cc2/C1=N\OCCN1CCCC1 | 93.4% (inactive) |

| SMILES | vessel count % control |
| --- | --- |
| NCC(CC(=O)O)c1ccc(Cl)cc1 (centres undefined) | 100% (inactive) |
| Nc1c2c(nc3ccccc13)CCCC2O (centres undefined) | 86.4% (inactive) |
| C[C@H](CS)C(=O)N1CCC[C@H]1C(=O)O | 100% (inactive) |
| NCC(O)C1CCCCCCC1 (centres undefined) | 95.9% (inactive) |
| CN1CCN(CCCN2c3ccccc3Sc3ccc(C(F)(F)F)cc32)CC1 | 105% (inactive) |
| CCC1(c2ccccc2)C(=O)NCNC1=O | 91.4% (inactive) |
| NCC#Cc1ccccc1 | 107% (inactive) |
| CN/C(=C\[N+](=O)[O-])NCCSCc1ccc(CN(C)C)o1 | 112% (inactive) |
| CC1Cc2cc3c(cc2C(c2ccc(N)cc2)=NN1)OCO3 (centres undefined) | 105% (inactive) |
| C[C@@H]1O[C@H](C[N+](C)(C)C)C[C@H]1O | 104% (inactive) |
| NOCC(=O)O | 114% (inactive) |
| CCC(NC(C)C)C(O)c1ccc(O)c(O)c1 (centres undefined) | 85.9% (inactive) |
| CN(C)CCC(c1ccc(Cl)cc1)c1ccccn1 (centres undefined) | 128% (inactive) |
| O=c1[nH]c2ccccc2n1C1CCN(CCCC(c2ccc(F)cc2)c2ccc(F)cc2)CC1 | 52.9% (inactive) |
| NNc1nncc2ccccc12 | 92.2% (inactive) |
| CC1=C(/C=C/C(C)=C/C=C/C(C)=C/C(=O)O)C(C)(C)CCC1 | 70% (inactive) |
| NCCc1c[nH]c2ccc(C(N)=O)cc12 | 112% (inactive) |
| NC1(C(=O)O)CC1 | 127% (inactive) |
| CC(=O)Oc1ccccc1C(=O)O | 105% (inactive) |
| NC(N)=NCc1cccc(I)c1 | 98.4% (inactive) |
| O=C1NC(=O)C(c2ccccc2[N+](=O)[O-])=C1Nc1ccc(O)c(Cl)c1 | 105% (inactive) |
| C=CCN1CCc2c(cc(O)c(O)c2Cl)C(c2ccccc2)C1 (centres undefined) | 121% (inactive) |
| O=C1C(c2c(O)[nH]c3ccccc23)=Nc2ccc(Br)cc21 | 108% (inactive) |
| N[C@H](C(=O)O)[C@H](O)C(=O)O | 90.4% (inactive) |
| CN(C)CCCN1c2ccccc2Sc2ccc(C(F)(F)F)cc21 | 105% (inactive) |
| CN1C2CCC1CC(OC(=O)c1c[nH]c3ccccc13)C2 (centres undefined) | 91.1% (inactive) |
| Fc1ccc(CN(C2=NCCN2)c2c(Cl)cccc2Cl)cc1 | 92.2% (inactive) |
